For the test, the target named is T1, human SLC6A19 and TMEM27 (Homo sapiens, UniProt Q695T7).
T1 construct: expressed in transfected cells
T1 sequence (Q695T7 1-634): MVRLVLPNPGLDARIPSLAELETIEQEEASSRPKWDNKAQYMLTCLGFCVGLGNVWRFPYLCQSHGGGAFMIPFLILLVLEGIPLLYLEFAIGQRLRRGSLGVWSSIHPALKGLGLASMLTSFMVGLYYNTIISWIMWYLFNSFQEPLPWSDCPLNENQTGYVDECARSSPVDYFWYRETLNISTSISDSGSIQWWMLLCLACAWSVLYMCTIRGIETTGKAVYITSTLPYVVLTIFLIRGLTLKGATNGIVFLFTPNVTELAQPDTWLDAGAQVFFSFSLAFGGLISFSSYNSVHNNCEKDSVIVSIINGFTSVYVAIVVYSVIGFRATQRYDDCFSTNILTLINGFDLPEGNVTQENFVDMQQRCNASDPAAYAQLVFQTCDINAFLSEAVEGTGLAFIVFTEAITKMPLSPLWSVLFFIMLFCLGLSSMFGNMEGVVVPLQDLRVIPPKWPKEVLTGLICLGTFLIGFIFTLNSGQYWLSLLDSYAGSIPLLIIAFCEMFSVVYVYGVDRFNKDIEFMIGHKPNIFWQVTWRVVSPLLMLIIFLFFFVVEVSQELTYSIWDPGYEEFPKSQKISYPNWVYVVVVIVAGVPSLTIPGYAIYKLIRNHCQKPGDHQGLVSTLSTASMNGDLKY
T1 sequence (Q9HBJ8 15-222 partner): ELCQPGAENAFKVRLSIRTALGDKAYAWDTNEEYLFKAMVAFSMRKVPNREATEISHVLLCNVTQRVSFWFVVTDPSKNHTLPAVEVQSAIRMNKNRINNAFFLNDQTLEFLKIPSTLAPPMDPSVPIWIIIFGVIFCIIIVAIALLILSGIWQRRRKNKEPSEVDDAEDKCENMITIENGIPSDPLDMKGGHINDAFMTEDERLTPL
As to the kind of experiment: Radiolabelled (3H) leucine uptake in CHO cells with doxycycline-inducible expression of human SLC6A19 and TMEM27 (Example B-1). In kind it is cell-based. Conditions: CHO cells with doxycycline-inducible expression of human SLC6A19 and TMEM27, read-out: SLC6A19_Radioligand Uptake Assay IC50. On the procedure:
The flasks were then incubated (humidified, 37° C. with 5% CO2) for 2 minutes. After incubation, 10 mL of pre-warmed cell culture media was added to each flask. The cell suspension was collected and centrifuged for 5 minutes at 200×g. The supernatant was aspirated and the pellet was resuspended in 5 mL pre-warmed cell culture media. The resuspended cells were counted using the Countess Cell Counting Chamber (Invitrogen) and the cell concentration of the suspension was readjusted to 1 million live cells/mL using pre-warmed cell culture media. […] Assay plates were then incubated (humidified, 37° C. with 5% CO2) for 18 hours. After incubation, the media was aspirated and the wells were washed 4 times with pre-warmed HBSS (Sigma-Aldrich, H8264-1L) using an Apricot S-Pipette S2 (Apricot Designs), such that 5 uL/well HBSS was remaining at the end of each wash. […] At this step, the final in-well DMSO concentration in the assay plate is 0.5%. All compounds were plated in a duplicate 8-point dilution series that consisted of 3-fold dilutions. The plates were incubated with compound (humidified, 37° C. with 5% CO2) for 1 hour. […] The plates were then incubated (humidified, 37° C. with 5% CO2) on a plate shaker at 200 rpm for 2 hours. After incubation, the plates were removed from the shaker and kept at room temperature for 15 minutes. Liquid scintillation analysis was performed using the MicroBeta2 Microplate Counter (Perkin Elmer). Activity (%) was derived by normalizing the average of positive control compound treated wells to 0% and the average of DMSO (negative control) wells to 100%. Collaborative Drug Discovery software was used for graphing data.
A word on the IC50: it is the point on the concentration scale where inhibition reaches its midpoint. For `CN1CC(C(=O)NCc2cc3cc(Cl)c(OCc4cscn4)cc3[nH]2)C1=O` (racemic) [Compound 546, (R)-N-((5-chloro-6-(thiazol-4-ylmethoxy)-1H-indol-2-yl)methyl)-1-methyl-2-oxoazetidine-3-carboxamide and (S)-N-((5-chloro-6-(thiazol-4-ylmethoxy)-1H-indol-2-yl)methyl)-1-methyl-2-oxoazetidine-3-carboxamide], the IC50 came out at 4480 nM.
Take `Cc1cc(COc2cc3[nH]c(CNC(=O)[C@@H]4CCC[C@@H]4O)cc3cc2Cl)on1` (racemic) [Compound 573, (1R,2S)-N-((5-chloro-6-((3-methylisoxazol-5-yl)methoxy)-1H-indol-2-yl)methyl)-2-hydroxycyclopentane-1-carboxamide and (1S,2R)-N-((5-chloro-6-((3-methylisoxazol-5-yl)methoxy)-1H-indol-2-yl)methyl)-2-hydroxycyclopentane-1-carboxamide]: the IC50 is 1390 nM.
With `Cc1cc(COc2cc3[nH]c(CNC(=O)C4CCN(C)C4=O)cc3cc2Cl)on1` (racemic) [Compound 574, (R)-N-((5-chloro-6-((3-methylisoxazol-5-yl)methoxy)-1H-indol-2-yl)methyl)-1-methyl-2-oxopyrrolidine-3-carboxamide and (S)-N-((5-chloro-6-((3-methylisoxazol-5-yl)methoxy)-1H-indol-2-yl)methyl)-1-methyl-2-oxopyrrolidine-3-carboxamide] the figure was 3600 nM.
With `Cc1cc(COc2cc3[nH]c(CNC(=O)N4CCC4C(F)F)cc3cc2Cl)on1` (racemic) [Compound 581, (S)-N-((5-chloro-6-((3-methylisoxazol-5-yl)methoxy)-1H-indol-2-yl)methyl)-2-(difluoromethyl)azetidine-1-carboxamide and (R)-N-((5-chloro-6-((3-methylisoxazol-5-yl)methoxy)-1H-indol-2-yl)methyl)-2-(difluoromethyl)azetidine-1-carboxamide] the figure was 657 nM.
Take `O=C(NCc1cc2cc(Cl)c(OCc3cscn3)cc2[nH]1)C(F)CF` (racemic) [Compound 639, N-((5-chloro-6-(thiazol-4-ylmethoxy)-1H-indol-2-yl)methyl)-2,3-difluoropropanamide]: the IC50 was determined as 112 nM.
With `CC1(C(=O)NCc2cc3cc(C4CC4(F)F)c(OCc4ccon4)cc3[nH]2)CC1` (racemic) [Compound 658, N-((5-(2,2-difluorocyclopropyl)-6-(isoxazol-3-ylmethoxy)-1H-indol-2-yl)methyl)-1-methylcyclopropane-1-carboxamide], the IC50 amounted to 590 nM.
`CN1CCC1C(=O)NCc1cc2cc(Cl)c(OCc3cscn3)cc2[nH]1` (racemic) [Compound 669, N-((5-chloro-6-(thiazol-4-ylmethoxy)-1H-indol-2-yl)methyl)-1-methylazetidine-2-carboxamide]: the half-maximal inhibitory concentration (IC50) stood at 3880 nM.
Regarding `CC(F)C(=O)NCc1cc2cc(Cl)c(OCc3cscn3)cc2[nH]1` (single isomer, unassigned) [Compound 443, (S or R)-N-((5-chloro-6-(thiazol-4-ylmethoxy)-1H-indol-2-yl)methyl)-2-fluoropropanamide], the IC50 amounted to 64.2 nM.
The same measure for `CC(F)C(=O)NCc1cc2cc(Cl)c(OCc3cscn3)cc2[nH]1` (single isomer, unassigned) [Compound 444, (R or S)-N-((5-chloro-6-(thiazol-4-ylmethoxy)-1H-indol-2-yl)methyl)-2-fluoropropanamide]: 77.4 nM.
With `Cc1cc(COc2cc3[nH]c(CNC(=O)C(C)C#N)cc3cc2Cl)on1` (single isomer, unassigned) [Compound 446, (R or S)-N-((5-chloro-6-((3-methylisoxazol-5-yl)methoxy)-1H-indol-2-yl)methyl)-2-cyanopropanamide] the figure was 221 nM; with `Cc1cc(COc2cc3[nH]c(CNC(=O)C(C)C#N)cc3cc2Cl)on1` (single isomer, unassigned) [Compound 447, (S or R)-N-((5-chloro-6-((3-methylisoxazol-5-yl)methoxy)-1H-indol-2-yl)methyl)-2-cyanopropanamide], 208 nM.
Take `CC1(C(=O)NCc2cc3c(F)c(Cl)c(OCc4ccon4)cc3[nH]2)CC1` [Compound 15, N-((5-chloro-4-fluoro-6-(isoxazol-3-ylmethoxy)-1H-indol-2-yl)methyl)-1-methylcyclopropane-1-carboxamide]: the IC50 worked out at 363 nM.
For `CC1(C(=O)NCc2cc3cc(Cl)c(OCc4ccon4)c(F)c3[nH]2)CC1` [Compound 16, N-((5-chloro-7-fluoro-6-(isoxazol-3-ylmethoxy)-1H-indol-2-yl)methyl)-1-methylcyclopropane-1-carboxamide], the IC50 worked out at 172 nM.
For `CC1(C(=O)NCc2cc3c(F)c(Cl)c(OCc4cscn4)cc3[nH]2)CC1` [Compound 17, N-((5-chloro-4-fluoro-6-(thiazol-4-ylmethoxy)-1H-indol-2-yl)methyl)-1-methylcyclopropane-1-carboxamide], the IC50 is 362 nM.
`CC1(C(=O)NCc2cc3ccc(OCc4cscn4)c(F)c3[nH]2)CC1` [Compound 19, N-((7-fluoro-6-(thiazol-4-ylmethoxy)-1H-indol-2-yl)methyl)-1-methylcyclopropane-1-carboxamide]: the IC50 turned out to be 341 nM.
As for `Cc1ccc(COc2cc3[nH]c(CNC(=O)C4(C)CC4)cc3cc2Cl)nc1` [Compound 21, N-((5-chloro-6-((5-methylpyridin-2-yl)methoxy)-1H-indol-2-yl)methyl)-1-methylcyclopropane-1-carboxamide], the IC50 was determined as 532 nM.
As for `Cc1ccnc(COc2cc3[nH]c(CNC(=O)C4(C)CC4)cc3cc2Cl)c1` [Compound 22, N-((5-chloro-6-((4-methylpyridin-2-yl)methoxy)-1H-indol-2-yl)methyl)-1-methylcyclopropane-1-carboxamide], the IC50 was determined as 2240 nM.
As for `CC1(C(=O)NCc2cc3cc(Cl)c(OCc4cc(F)ccn4)cc3[nH]2)CC1` [Compound 35, N-((5-chloro-6-((4-fluoropyridin-2-yl)methoxy)-1H-indol-2-yl)methyl)-1-methylcyclopropane-1-carboxamide], the IC50 worked out at 902 nM.
With `CCc1cc2cc(CNC(=O)C3(C)CC3)[nH]c2cc1OCc1ccon1` [Compound 61, N-((5-ethyl-6-(isoxazol-3-ylmethoxy)-1H-indol-2-yl)methyl)-1-methylcyclopropane-1-carboxamide] the figure was 297 nM.
The same measure for `Cc1coc(COc2cc3[nH]c(CNC(=O)C4(C)CC4)cc3cc2Cl)n1` [Compound 71, N-((5-chloro-6-((4-methyloxazol-2-yl)methoxy)-1H-indol-2-yl)methyl)-1-methylcyclopropane-1-carboxamide]: 111 nM; for `CC1(C(=O)NCc2cc3cc(F)c(OCc4cc(C(F)(F)F)on4)cc3[nH]2)CC1` [Compound 72, N-((5-fluoro-6-((5-(trifluoromethyl)isoxazol-3-yl)methoxy)-1H-indol-2-yl)methyl)-1-methylcyclopropane-1-carboxamide]: 1240 nM.
The same measure for `Cc1cnc(COc2cc3[nH]c(CNC(=O)C4(C)CC4)cc3cc2F)o1` [Compound 73, N-((5-fluoro-6-((5-methyloxazol-2-yl)methoxy)-1H-indol-2-yl)methyl)-1-methylcyclopropane-1-carboxamide]: 1470 nM.
